Experiment [1] is described as follows: Inhibition of N-terminal His-6 tagged VIM-2 (27 to 266 residues) (unknown origin) expressed in Escherichia coli Transetta (DE3) using FC5 as fluorescence substrate preincubated for 10 mins followed by substrate addition by microplate reader analysis. The arrangement: species or system Bacteria.
Experiment [2] in a line: Inhibition of Metallo-beta-lactamase VIM-1 (unknown origin) using FC5 as fluorescence substrate preincubated for 10 mins followed by substrate addition by microplate reader analysis.
Experiment [3] can be described thus: Inhibition of Metallo-beta-lactamase VIM-5 (unknown origin) using FC5 as fluorescence substrate preincubated for 10 mins followed by substrate addition by microplate reader analysis.
The target of experiment [4] is Metallo-beta-lactamase type 2 (Bacteria, UniProt C7C422). Kind of experiment: Inhibition of NDM-1 (1 to 270 residues) (unknown origin) expressed in Escherichia coli Transetta (DE3) using FC5 as fluorescence substrate preincubated for 10 mins followed by substrate addition by microplate reader analysis.
Experiment [5] is described as follows: Inhibition of Metallo-beta-lactamase IMP-1 (unknown origin) using FC5 as fluorescence substrate preincubated for 10 mins followed by substrate addition by microplate reader analysis.
For experiment [6], the system named is Escherichia coli. Kind of experiment: Antibacterial activity against Escherichia coli C1541 expressing VIM-2 assessed as meropenem MIC at 10 ug/ml incubated for 16 to 18 hrs in presence of meropenem by two-fold serial dilution method. The class given is functional. The following applies: dose 10 µg/ml, time 16-18 hrs.
The subject of experiment [7] is Escherichia coli. Nature of the experiment: Antibacterial activity against Escherichia coli C1542 expressing VIM-2 assessed as meropenem MIC at 10 ug/ml incubated for 16 to 18 hrs in presence of meropenem by two-fold serial dilution method. It counts as functional. The following applies: dose 10 µg/ml, time 16-18 hrs.
Experiment [8] has as its system Escherichia coli. Kind of experiment: Antibacterial activity against Escherichia coli C1541 expressing IMP-1 assessed as meropenem MIC at 10 ug/ml incubated for 16 to 18 hrs in presence of meropenem by two-fold serial dilution method. Conditions: dose 10 µg/ml, time 16-18 hrs. It counts as functional.

Some results are limits rather than exact numbers.

Chain of Metallo-beta-lactamase type 2 (C7C422 whole entry, the tested form may be a part): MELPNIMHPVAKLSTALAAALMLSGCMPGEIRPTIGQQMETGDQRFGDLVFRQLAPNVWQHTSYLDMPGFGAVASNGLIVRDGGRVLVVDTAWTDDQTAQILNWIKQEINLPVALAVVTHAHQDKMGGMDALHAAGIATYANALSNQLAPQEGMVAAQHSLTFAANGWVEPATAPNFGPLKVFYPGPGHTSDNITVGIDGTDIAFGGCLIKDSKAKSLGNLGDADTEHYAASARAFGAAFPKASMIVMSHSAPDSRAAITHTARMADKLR

By IC50 is commonly meant the concentration that gives 50% inhibition. A lower IC50 goes with higher potency. One may read the MIC as the lowest concentration that inhibits growth of the organism. With `O=C(O)c1nccn1Cc1ccccc1`, the IC50 in experiment [1] is 0.48 µM; in experiment [2] it was 4.14 µM; in experiment [3] it was 1.55 µM; in experiment [4] it was 63.5 µM; in experiment [5], 32.1 µM. For the same compound, the MIC in the experiment on Escherichia coli [6] came out at 16 µg/mL; with Escherichia coli [7], 16 µg/mL; with Escherichia coli [8] it was 8 µg/mL.
Consider `O=C(O)c1nccn1Cc1ccncc1`, for which the IC50 in experiment [1] was 0.56 µM; in experiment [2], 29.5 µM; in experiment [3], 5.78 µM; in experiment [4], greater than 300 µM; in experiment [5] it was greater than 300 µM. Further, the figures for the MIC in the experiment with Escherichia coli [6], with Escherichia coli [7] and with Escherichia coli [8] were no more than 0.25 µg/mL, no more than 0.25 µg/mL and 8 µg/mL, respectively.
For the compound `O=C(O)c1nccn1CCc1cccc2ccccc12`, the IC50 in experiment [1] is 0.07 µM; in experiment [2], 4.13 µM; in experiment [3] it was 1.07 µM; in experiment [4] it was 74.8 µM; in experiment [5], 50.9 µM. For the same compound, the MIC with Escherichia coli [6] was no more than 0.25 µg/mL; with Escherichia coli [7], no more than 0.25 µg/mL; with Escherichia coli [8] it was 8 µg/mL.
Turning to `O=C(O)c1nccn1CCc1ccc2ccccc2c1`, the IC50 in experiment [1] is 0.023 µM; in experiment [2] it was 7.06 µM; in experiment [3], 0.14 µM; in experiment [4], greater than 100 µM; in experiment [5], 46.8 µM. The MIC is 0.5 µg/mL with Escherichia coli [6], no more than 0.25 µg/mL in the experiment on Escherichia coli [7] and 8 µg/mL with Escherichia coli [8].
`O=C(O)c1nccn1CCc1ccc(-c2cccs2)cc1`: the IC50 in experiment [1] was determined as 0.018 µM; in experiment [2], 3.98 µM; in experiment [3] it was 0.018 µM; in experiment [4] it was 126 µM; in experiment [5] it was 64 µM. The MIC is no more than 0.25 µg/mL with Escherichia coli [6], no more than 0.25 µg/mL in the experiment with Escherichia coli [7] and 8 µg/mL in the experiment with Escherichia coli [8].
As to `O=C(O)c1nccn1CCc1ccc([N+](=O)[O-])cc1`, the IC50 in experiment [1] is 0.04 µM; in experiment [2], 4.84 µM; in experiment [3], 0.15 µM; in experiment [4] it was greater than 100 µM; in experiment [5] it was greater than 100 µM. Besides, the MIC was no more than 0.25 µg/mL with Escherichia coli [6], no more than 0.25 µg/mL with Escherichia coli [7] and 8 µg/mL in the experiment with Escherichia coli [8].
As for `O=C(O)c1nccn1C(C(=O)O)c1ccccc1` (centres undefined), the IC50 in experiment [1] is 7.48 µM; in experiment [2] it was greater than 300 µM; in experiment [3] it was 9.24 µM; in experiment [4] it was greater than 300 µM; in experiment [5], 1.59 µM. Further, the MIC in the experiment with Escherichia coli [6] was 16 µg/mL; in the experiment on Escherichia coli [7] it was 16 µg/mL; in the experiment on Escherichia coli [8] it was 8 µg/mL.
As to `O=C(O)c1nccn1CCc1ccc(-c2ccccc2)cc1`, the IC50 in experiment [1] was 0.06 µM; in experiment [2], 2.37 µM; in experiment [3], 0.18 µM; in experiment [4], 25.4 µM; in experiment [5] it was 21.4 µM. Also, the MIC was 0.5 µg/mL in the experiment on Escherichia coli [6], no more than 0.25 µg/mL with Escherichia coli [7] and 8 µg/mL in the experiment on Escherichia coli [8].

The values are drawn from ChEMBL document CHEMBL5360522, “Design, Synthesis, and Biological Evaluation of New 1H-Imidazole-2-Carboxylic Acid Derivatives as Metallo-β-Lactamase Inhibitors” (Bioorg Med Chem, 2022).
